Measured values: PubChem BioAssay (NCI)
Values joined by “and” are separate entries in the source; they are usually repeats but may differ in a detail not shown here. Equal entries are not always repeated.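 These data come from cells grown in 96-well plates and exposed to compound for 48 hours at five concentrations. Abbreviation: GI50, concentration required for 50% inhibition of growth. The concentration for full growth arrest is given as TGI.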

Columns and labels:
Assay in all cases: inhibition of tumour cell growth, NCI panel, 48 h
U251 CNS = test system: U251 CNS
K-562 leukemia = test system: K-562 leukemia
786-0 renal = test system: 786-0 renal
NCI/ADR-RES ovarian = test system: NCI/ADR-RES ovarian
UACC-257 melanoma = test system: UACC-257 melanoma
MCF7 breast = test system: MCF7 breast
HOP-62 NSCLC = test system: HOP-62 NSCLC
HCC-2998 colon = test system: HCC-2998 colon
NCI-H226 lung = test system: NCI-H226 lung
HCT-15 colon = test system: HCT-15 colon
SF-539 CNS = test system: SF-539 CNS
HT29 colon = test system: HT29 colon
MDA-MB-231 breast = test system: MDA-MB-231 breast
SNB-19 CNS = test system: SNB-19 CNS
SNB-75 CNS = test system: SNB-75 CNS
SW-620 colon = test system: SW-620 colon
NCI-H23 lung = test system: NCI-H23 lung
OVCAR-8 ovarian = test system: OVCAR-8 ovarian
IGROV1 ovarian = test system: IGROV1 ovarian
SF-268 CNS = test system: SF-268 CNS
KM12 colon = test system: KM12 colon
HCT-116 colon = test system: HCT-116 colon
HS 578T breast = test system: HS 578T breast
A549 NSCLC = test system: A549 NSCLC
SN12C renal = test system: SN12C renal
NCI-H522 lung = test system: NCI-H522 lung
CAKI-1 renal = test system: CAKI-1 renal
OVCAR-3 ovarian = test system: OVCAR-3 ovarian
MDA-MB-435 = test system: MDA-MB-435
UACC-62 melanoma = test system: UACC-62 melanoma
HL-60(TB) leukemia = test system: HL-60(TB) leukemia
SK-OV-3 ovarian = test system: SK-OV-3 ovarian
SF-295 CNS = test system: SF-295 CNS
TK-10 renal = test system: TK-10 renal
SK-MEL-28 melanoma = test system: SK-MEL-28 melanoma
ACHN renal = test system: ACHN renal
OVCAR-4 ovarian = test system: OVCAR-4 ovarian
MOLT-4 leukemia = test system: MOLT-4 leukemia
BT-549 breast = test system: BT-549 breast
M14 melanoma = test system: M14 melanoma
RPMI-8226 leukemia = test system: RPMI-8226 leukemia
NCI-H460 lung = test system: NCI-H460 lung
UO-31 renal = test system: UO-31 renal
SR leukemia = test system: SR leukemia
PC-3 prostate = test system: PC-3 prostate
T-47D breast = test system: T-47D breast
MALME-3M melanoma = test system: MALME-3M melanoma
COLO 205 colon = test system: COLO 205 colon
SK-MEL-2 melanoma = test system: SK-MEL-2 melanoma
A498 renal = test system: A498 renal
RXF 393 renal = test system: RXF 393 renal
EKVX NSCLC = test system: EKVX NSCLC
CCRF-CEM leukemia = test system: CCRF-CEM leukemia
OVCAR-5 ovarian = test system: OVCAR-5 ovarian
SK-MEL-5 melanoma = test system: SK-MEL-5 melanoma
LOX IMVI melanoma = test system: LOX IMVI melanoma
DU-145 prostate = test system: DU-145 prostate

SMILES: COc1cc(OC)c(/C=C/S(=O)(=O)Cc2ccc(OC)c(NCC(=O)O)c2)c(OC)c1
- GI50 (U251 CNS): 193 nM and 47.7 nM
- TGI (U251 CNS): > 100000 nM
- GI50 (K-562 leukemia): 76.7 nM and 49 nM
- TGI (K-562 leukemia): > 100000 nM
- GI50 (786-0 renal): 177 nM and 144 nM
- TGI (786-0 renal): > 100000 nM
- GI50 (NCI/ADR-RES ovarian): 67.8 nM and 33.2 nM
- TGI (NCI/ADR-RES ovarian): > 3120 nM
- TGI (UACC-257 melanoma): > 100000 nM
- GI50 (MCF7 breast): 109 nM and 58.6 nM
- TGI (MCF7 breast): > 100000 nM
- GI50 (HOP-62 NSCLC): 291 nM and 87.4 nM
- TGI (HOP-62 NSCLC): > 100000 nM
- GI50 (HCC-2998 colon): 247 nM and 237 nM
- TGI (HCC-2998 colon): > 100000 nM
- GI50 (NCI-H226 lung): > 2440 nM and 390 nM
- TGI (NCI-H226 lung): > 100000 nM
- GI50 (HCT-15 colon): 127 nM and 241 nM
- TGI (HCT-15 colon): > 100000 nM
- GI50 (SF-539 CNS): 193 nM and 55.3 nM
- GI50 (HT29 colon): 334 nM and 328 nM
- TGI (HT29 colon): > 8570 nM and 1400 nM
- GI50 (MDA-MB-231 breast): 192 nM and 196 nM
- TGI (MDA-MB-231 breast): > 2680 nM
- GI50 (SNB-19 CNS): 139 nM and 244 nM
- TGI (SNB-19 CNS): > 100000 nM
- GI50 (SNB-75 CNS): 68.2 nM and 49.2 nM
- TGI (SNB-75 CNS): > 100000 nM
- GI50 (SW-620 colon): 130 nM and 108 nM
- TGI (SW-620 colon): > 100000 nM
- GI50 (NCI-H23 lung): 263 nM and 136 nM
- TGI (NCI-H23 lung): > 100000 nM
- GI50 (OVCAR-8 ovarian): 273 nM and 104 nM
- TGI (OVCAR-8 ovarian): > 100000 nM
- GI50 (IGROV1 ovarian): 152 nM and 244 nM
- TGI (IGROV1 ovarian): > 100000 nM
- GI50 (SF-268 CNS): 292 nM and 153 nM
- TGI (SF-268 CNS): > 100000 nM
- GI50 (KM12 colon): 103 nM and 49.9 nM
- TGI (KM12 colon): > 10000 nM
- GI50 (HCT-116 colon): 119 nM and 93.4 nM
- TGI (HCT-116 colon): > 10000 nM
- GI50 (HS 578T breast): 103 nM and 60.5 nM
- TGI (HS 578T breast): > 100000 nM
- GI50 (A549 NSCLC): 229 nM and 75.5 nM
- TGI (A549 NSCLC): > 100000 nM
- GI50 (SN12C renal): 207 nM and 251 nM
- TGI (SN12C renal): > 100000 nM
- GI50 (NCI-H522 lung): 37.4 nM and 20.5 nM
- TGI (NCI-H522 lung): 213 nM and 60.8 nM
- TGI (CAKI-1 renal): > 100000 nM
- GI50 (OVCAR-3 ovarian): 93.5 nM and 70.2 nM
- TGI (OVCAR-3 ovarian): 533 nM
- GI50 (MDA-MB-435): 31.2 nM and 28.3 nM
- TGI (MDA-MB-435): 115 nM and 111 nM
- TGI (UACC-62 melanoma): > 100000 nM
- GI50 (HL-60(TB) leukemia): 156 nM and 355 nM
- GI50 (SK-OV-3 ovarian): 442 nM and 99 nM
- TGI (SK-OV-3 ovarian): > 100000 nM
- GI50 (SF-295 CNS): 68.7 nM and 44.6 nM
- TGI (SF-295 CNS): > 100000 nM
- TGI (TK-10 renal): > 100000 nM
- GI50 (SK-MEL-28 melanoma): 340 nM
- TGI (SK-MEL-28 melanoma): > 10000 nM
- GI50 (ACHN renal): 178 nM and 452 nM
- TGI (ACHN renal): > 100000 nM
- GI50 (OVCAR-4 ovarian): > 2910 nM and 417 nM
- TGI (OVCAR-4 ovarian): > 100000 nM
- GI50 (MOLT-4 leukemia): 408 nM and 466 nM
- TGI (MOLT-4 leukemia): > 100000 nM
- GI50 (BT-549 breast): 193 nM and 400 nM
- TGI (BT-549 breast): > 24500 nM
- GI50 (M14 melanoma): 96.5 nM and 46.7 nM
- TGI (M14 melanoma): > 10000 nM
- GI50 (RPMI-8226 leukemia): 160 nM and 331 nM
- TGI (RPMI-8226 leukemia): > 100000 nM
- GI50 (NCI-H460 lung): 114 nM and 45.1 nM
- TGI (NCI-H460 lung): > 100000 nM
- TGI (UO-31 renal): > 100000 nM
- GI50 (SR leukemia): 181 nM and 206 nM
- TGI (SR leukemia): > 100000 nM
- GI50 (PC-3 prostate): 119 nM and 48.6 nM
- TGI (PC-3 prostate): > 100000 nM
- GI50 (T-47D breast): > 100000 nM
- TGI (T-47D breast): > 100000 nM
- TGI (MALME-3M melanoma): > 100000 nM
- GI50 (COLO 205 colon): 238 nM and 274 nM
- TGI (COLO 205 colon): 714 nM and 738 nM
- GI50 (SK-MEL-2 melanoma): 396 nM and 288 nM
- TGI (SK-MEL-2 melanoma): > 100000 nM
- GI50 (A498 renal): 66.8 nM and 44.8 nM
- GI50 (RXF 393 renal): 72.6 nM and 46.7 nM
- TGI (RXF 393 renal): > 100000 nM
- GI50 (EKVX NSCLC): 127 nM and 83.4 nM
- TGI (EKVX NSCLC): > 100000 nM
- GI50 (CCRF-CEM leukemia): 159 nM and 291 nM
- TGI (CCRF-CEM leukemia): > 100000 nM
- GI50 (OVCAR-5 ovarian): 347 nM and 470 nM
- TGI (OVCAR-5 ovarian): > 100000 nM
- GI50 (SK-MEL-5 melanoma): 113 nM and 68.4 nM
- TGI (SK-MEL-5 melanoma): 1290 nM and 1010 nM
- GI50 (LOX IMVI melanoma): 150 nM and 134 nM
- TGI (LOX IMVI melanoma): > 100000 nM
- GI50 (DU-145 prostate): 290 nM and 176 nM
